Experiments:
seeds = test: Field trials and large-scale laboratory tests of seed treatments; type: in vivo; conditions: seeds treated with formulations containing only 0.7 μl/seed
From the text: Applicants expected that this compound as well as other microbial metabolites would have transitory but beneficial effects on plant growth, resistance to stresses and other advantages. However, as field trials were developed and conducted on seed treatments with this compound in field and large-scale laboratory tests, the effects were discovered to be neither transitory nor small.

plant = test: Plant growth and productivity with 1-octen-3-ol in aerial solution or as seed treatment; type: in vivo; conditions: very low concentrations in aerial solution; duplicated by seed treatments at low concentrations
From the text: Applicants have begun evaluating the triggering molecules released in the rhizosphere since applicants expected that they might have both commercial and basic scientific uses. The expectation was they would have beneficial effects upon plants.

With `C=CC(O)CCCCC` (centres unmarked) [Trichoderma 1-octen-3-ol, 1-octen-3-ol] the “Duration of effects after seed treatment” value (seeds) was “season long effects were observed” and the “Effect on plant growth and productivity” value (plant) was “enhances plant growth and productivity”.

— patent US11229203B2, “Method of formulation of combined microbe and agricultural chemistry, microbe-derivative composition, and use of same” (priority 2017, dated 2022)
